Reference: US20150065472A1, “INTRAUTERINE APPLICATION OF 18-METHYL-15SS,16SS-METHYLENE-19-NOR-20-SPIROX-4-EN-3-ONE SYSTEMS, INTRAUTERINE SYSTEMS CONTAINING 18-METHYL-15SS,16SS-METHYLENE-19-NOR-20-SPIROX-4-EN-3-ONE, AS WELL AS THE USE THEREOF IN CONTRACEPTION AND GYNAECOLOGICAL THERAPY” (BAYER PHARMA AKTIENGESELLSCHAFT, priority 2012, published 2015)

Experiments:
[1] = tested on: uterus of ovary-resected rats; assay: Uterine weight gain after implantation of progestin-containing IUS (rod) in ovary-resected rats; format: in vivo, rat; conditions: ovary-resected E2-treated rats, IUS (rod) in right uterine horn, FIG. 1/4
Procedure: (§1) The local uterine action of the progestin compared to systemic side effects (dissociation) was investigated on the basis of studies using rats. The uterus of ovary-resected rats responds to implantation of progestin-containing IUS (rods) with decidualization and weight gain. The local progestin effects were also determined on the basis of changes in gene expression.
(§2) Ovary-resected female rats were treated with estradiol (E2) for three days (0.2 μg/day/animal, subcutaneous dosing). On day 4, an IUS (rod) was implanted into the right uterine horn of each animal. The left uterine horn remained untreated for internal comparison. Administration of E2 was continued with a daily dose of 0.1 μg/animal to ensure responsiveness of the uterus (maintaining progesterone-receptor expression) to progestins. Blood was taken for LH level measurements on days 4, 10 and 17.

[2] = In-vitro metabolic studies (liver); format: in vitro ADME; conditions: all in-vitro metabolic studies (liver)
[3] = Break-down in vivo in animal species; conditions: all animal species studied in vivo
[4] = tested on: serum LH level of ovary-resected rats; assay: Serum luteinizing hormone (LH) level in ovary-resected rats carrying IUS (rod); format: in vivo, rat; conditions: FIG. 2/4
Procedure: Serum levels of luteinizing hormone (LH) are used for detecting systemic effects of the locally administered progestin. Basal serum-LH levels of ovary-resected rats are elevated compared to the levels of intact control animals. Undesired systemic efficacy of the uterine-administered progestin can be detected by a decrease in the LH level.
as §2

IGFBP-1 gene expression = assay: Gene expression analysis in rat uterine tissue after IUS (rod) administration; format: in vivo; conditions: rat uterus, FIG. 3/4
Procedure: as §1
as §2, with “17. […]” for “17.”
Gene expression analysis was carried out with from 50 ng to 200 ng of cDNA per reaction on an SDS7900HT Real.time PCR system (Applied Biosystems, Carlsbad, USA) using TaqMan probes (Applied Biosystems; IGFBP-1 Rn00565713_m1, Cyp26a1 Rn00590308_m1, PPIA Rn00690933_m1) and the Fast Blue qPCR MasterMix Plus (Eurogentec, Liège, Belgium; #RT-QP2X-03+FB). For relative quantification, cyclophilin A (PPIA) was used as an endogenous control. Relative expression levels were calculated according to the comparative delta delta CT method.

[5] = In-vitro break-down (liver) for humans; format: in vitro ADME; conditions: human liver in vitro
[6] = biological target: T1, human androgen receptor (hAR) (Homo sapiens, UniProt P10275); assay: hAR transactivation in PC3 cells stably transfected with hAR and MTV-luc reporter gene; format: cell-based; conditions: MTV-luc reporter
T1 construct: expressed in transfected cells; host or cells: PC3 (human prostate carcinoma) cells, stably transfected with hAR and MTV-luc reporter
T1 sequence (P10275 1-920): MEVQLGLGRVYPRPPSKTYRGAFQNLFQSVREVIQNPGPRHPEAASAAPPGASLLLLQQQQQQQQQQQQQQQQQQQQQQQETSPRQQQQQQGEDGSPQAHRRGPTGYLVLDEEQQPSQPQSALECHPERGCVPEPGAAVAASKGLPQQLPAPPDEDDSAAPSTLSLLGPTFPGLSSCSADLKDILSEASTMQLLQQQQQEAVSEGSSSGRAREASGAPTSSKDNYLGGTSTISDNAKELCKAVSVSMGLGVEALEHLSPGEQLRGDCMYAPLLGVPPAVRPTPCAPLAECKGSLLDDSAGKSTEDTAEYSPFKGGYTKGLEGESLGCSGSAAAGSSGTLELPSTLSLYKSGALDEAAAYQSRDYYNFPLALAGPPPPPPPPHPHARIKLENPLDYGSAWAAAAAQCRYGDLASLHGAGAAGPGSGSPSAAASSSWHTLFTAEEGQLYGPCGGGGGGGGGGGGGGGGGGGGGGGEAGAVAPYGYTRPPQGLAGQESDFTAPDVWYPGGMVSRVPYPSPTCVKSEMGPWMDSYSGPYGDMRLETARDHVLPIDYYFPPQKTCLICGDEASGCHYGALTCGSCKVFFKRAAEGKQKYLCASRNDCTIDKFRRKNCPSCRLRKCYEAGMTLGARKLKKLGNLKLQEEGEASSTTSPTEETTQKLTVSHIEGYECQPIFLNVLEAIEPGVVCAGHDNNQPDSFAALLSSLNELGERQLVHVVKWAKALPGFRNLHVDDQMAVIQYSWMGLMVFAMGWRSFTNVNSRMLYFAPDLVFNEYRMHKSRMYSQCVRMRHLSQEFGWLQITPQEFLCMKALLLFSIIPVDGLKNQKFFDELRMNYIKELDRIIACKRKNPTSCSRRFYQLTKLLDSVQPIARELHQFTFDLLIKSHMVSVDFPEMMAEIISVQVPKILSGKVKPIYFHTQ
From the text: The action on the human androgen receptor (hAR) was studied by means of transactivation analyses. For this, different concentrations of the test substances were to cells with stable expression of the human androgen receptor, and activation of the androgen receptor can be detected via a reporter gene.
For transactivation studies, PC3 (human prostate carcinoma) cells which have been stably transfected with hAR and the MTV-luc reporter gene were used. The culture medium used was RPM! medium (without L-glutamine; without Phenol Red) #E15-49 PAA L-glutamine 200 mM #25030-024 Gibco BRL 100 U/100 μg/ml penicillin/streptomycin Gibco # 15140-122, with 10% foetal calf serum (FCS). The cells were cultured at 37° C. and 5% CO2. The test medium corresponded to the culture medium, except that 10% FCS was replaced with 5% activated carbon-treated FCS (CCS). Cells were seeded in wells of a 96 well plate (“CulturPlate” from Packard #6005180) with 2×10^4 cells/well/200 μl of test medium. The cells were incubated with different concentrations of the test substances, and 80 μl of substrate were measured using the “steadylite HTS Reporter Gene Assay System” from Perkin Elmer.

SMILES	local efficacy by way of weight gain in the IUS-carrying uterine horn [1]	break-down rate in in-vitro metabolic studies (liver) [2]	break-down rate in vivo [3]	LH decrease (systemic side effect) ([4]; 10 μg/animal and day dose of compound A)	LH decrease (systemic side effect) ([4]; compound A release range tested 0.6-10 μg per animal and day (except the 10 μg dose))	rate of release from the IUS at which IGFBP-1 gene expression is induced, lower than with levonorgestrel (IGFBP-1 gene expression)	break-down rates in vitro (liver) for humans [5]	EC50 [6] [nM]	LH decrease (systemic side effect) ([4]; compound B release range tested 1-45 μg/animal and day)
CC[C@]12CCC3C4CCC(=O)C=C4CCC3C1[C@@H]1C[C@@H]1[C@@]21CCCO1 (stereo partly drawn) [compound A, 18-methyl-15β,16β-methylene-19-nor-20-spirox-4-en-3-one]	dose-dependent local efficacy	very fast	very fast	exception	no LH decrease	approx. 7 ×	very rapid	6.9	–
CC[C@]12CCC3C4CCC(=O)C=C4[C@H]4C[C@H]4C3C1[C@@H]1C[C@@H]1[C@@]21CCCO1 (stereo partly drawn) [compound B, 18-methyl-6α,7α,15β,16β-dimethylene-19-nor-20-spirox-4-en-3-one]	dose-dependent local efficacy	very fast	very fast	–	–	–	very rapid	56	no LH decrease
